{
  "source": "patent US20260158158A1",
  "about": "“ANTIBODY-DRUG CONJUGATE, PREPARATION METHOD THEREFOR AND USE THEREOF” (HANGZHOU ADCORIS BIOPHARMA CO., LTD, priority 2023, published 2026)",
  "type_in_all_cases": "in vivo, BALB/c nude mice",
  "key": {"[1]": {"test_system": "Pancreatic cancer cell BXPC-3", "experiment": "Tumor growth inhibition in BXPC-3 CDX model (nude mouse xenograft)", "settings": "BIW × 3 weeks", "source_text": "(§1) Method for testing tumor inhibitory activity of ADC in nude mouse xenograft model (cell-derived xenograft, CDX): Pancreatic cancer cell BXPC-3, lung adenocarcinoma cell NCI-H1975, triple-negative breast cancer cell MDA-MB-231, and esophageal squamous carcinoma cell KYSE-150 were subjected to monolayer culturing in vitro. When cell saturation reached 80%-90%, the cells were digested with trypsin-EDTA and centrifuged. The supernatant was discarded. The cells were re-suspended in PBS. The cell suspension was adjusted to an appropriate concentration. BXPC-3, NCI-H1975, MDA-MB-231, and KYSE-150 cells (2-10×10^6 cells/0.1 mL) were separately subcutaneously inoculated into BALB/c nude mice. The animals and the growth of transplanted tumors were observed regularly. When the tumor volume reached approximately 100-200 mm^3, the mice were randomly divided into groups based on tumor volume and body weight, with 6 animals per group. The animals were administered regularly via intravenous injection. Twice a week, the longer diameter a (mm) and shorter diameter b (mm) of the tumor were measured with a vernier caliper and the body weight of the mice was measured. The tumor volume (V) was calculated according to the following formula: V=½×a×b^2 (mm^3), in which a and b represented the length and width of the tumor, respectively. A growth curve was plotted. Finally, the tumor was excised and weighed. […]"}, "[2]": {"test_system": "lung adenocarcinoma cell NCI-H1975", "experiment": "Tumor growth inhibition in NCI-H1975 model (nude mouse xenograft)", "settings": "NCI-H1975, 10 mg/kg iv, BIW × 2 weeks", "source_text": "as §1"}, "[3]": {"test_system": "triple-negative breast cancer cell MDA-MB-231", "experiment": "Tumor growth inhibition in MDA-MB-231 CDX model (nude mouse xenograft)", "settings": "10 mg/kg iv, BIW × 3 doses", "source_text": "as §1"}, "[4]": {"test_system": "esophageal squamous carcinoma cell KYSE-150", "experiment": "Tumor growth inhibition in KYSE-150 CDX model (nude mouse xenograft)", "settings": "10 mg/kg iv, BIW × 2 weeks", "source_text": "as §1"}},
  "data": [
    {"smiles": "Nc1ccn([C@@H]2O[C@H](CO)[C@@H](O)C2(F)F)c(=O)n1", "note": "[Gemcitabine]", "values": [
      {"measurement": "Tumor inhibition on D33", "setting": "[1]; 90 mg/kg iv", "result": 41.52, "unit": "%"}
    ]},
    {"smiles": "CC(=O)O[C@H]1C(=O)[C@@]2(C)[C@H]([C@H](OC(=O)c3ccccc3)[C@]3(O)C[C@H](OC(=O)[C@H](O)[C@@H](NC(=O)c4ccccc4)c4ccccc4)C(C)=C1C3(C)C)[C@]1(OC(C)=O)CO[C@@H]1C[C@@H]2O", "note": "[Paclitaxel]", "values": [
      {"measurement": "Tumor inhibition on D21", "setting": "[2]", "result": 94.5, "unit": "%"},
      {"measurement": "Tumor inhibition on D25", "setting": "[3]", "result": 79.96, "unit": "%"},
      {"measurement": "Tumor inhibition on D21", "setting": "[4]", "result": 78.00, "unit": "%"}
    ]},
    {"smiles": "CC[C@@]1(O)C(=O)OCc2c1cc1n(c2=O)Cc2c-1nc1cc(F)c(C)c3c1c2[C@@H](NC(=O)CONC)CC3", "note": "[Compound 10]", "values": [
      {"measurement": "Tumor inhibition on D33", "setting": "[1]; 0.12 mg/kg iv", "result": 16.75, "unit": "%"}
    ]}
  ]
}
